Data from ChEMBL document CHEMBL4311959, “Discovery of a potent p38α/MAPK14 kinase inhibitor: Synthesis, in vitro/in vivo biological evaluation, and docking studies” (Eur J Med Chem, 2019).

What was measured:
[1] = molecular target: RAC-alpha serine/threonine-protein kinase (Homo sapiens) (UniProt P31749); assay: Inhibition of human AKT1 at 10 uM using KGSGSGRPRTSSFAEG as substrate by [gamma-33P]-ATP assay relative to control
[2] = molecular target: ALK tyrosine kinase receptor (Homo sapiens) (UniProt Q9UM73); assay: Inhibition of human ALK at 10 uM using poly[Glu:Tyr] (4:1) as substrate by [gamma-33P]-ATP assay relative to control
[3] = molecular target: Voltage-gated inwardly rectifying potassium channel KCNH2 (Homo sapiens, UniProt Q12809); assay: Inhibition of human ERG incubated for 4 hrs by competitive fluorescence tracer binding based assay
[4] = Stability in human plasma assessed as remaining compound at 10 uM incubated for 30 mins by LC-MS analysis; type: ADME, cell-free; conditions: read-out: Stability
[5] = molecular target: Mast/stem cell growth factor receptor Kit (Homo sapiens) (UniProt P10721); assay: Inhibition of human c-KIT at 10 uM using poly[Glu:Tyr] (4:1) as substrate by [gamma-33P]-ATP assay relative to control
[6] = molecular target: Mitogen-activated protein kinase 8 (Homo sapiens) (UniProt P45983); assay: Inhibition of human JNK1 at 10 uM using ATF2 as substrate by [gamma-33P]-ATP assay relative to control
Sequence of Mitogen-activated protein kinase 8 (Homo sapiens) (P45983 whole entry): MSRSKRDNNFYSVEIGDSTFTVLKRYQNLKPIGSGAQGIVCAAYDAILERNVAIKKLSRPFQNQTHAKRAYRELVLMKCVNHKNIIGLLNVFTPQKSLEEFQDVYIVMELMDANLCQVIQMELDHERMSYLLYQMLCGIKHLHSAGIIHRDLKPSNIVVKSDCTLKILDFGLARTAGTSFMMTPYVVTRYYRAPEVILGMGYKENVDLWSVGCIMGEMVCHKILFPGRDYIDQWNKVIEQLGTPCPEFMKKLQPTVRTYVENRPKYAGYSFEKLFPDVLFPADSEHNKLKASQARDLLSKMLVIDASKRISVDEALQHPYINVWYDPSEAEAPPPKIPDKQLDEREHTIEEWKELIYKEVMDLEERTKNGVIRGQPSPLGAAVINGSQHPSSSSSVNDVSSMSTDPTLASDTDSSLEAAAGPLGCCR

[7] = molecular target: Insulin receptor (Homo sapiens) (UniProt P06213); assay: Inhibition of human IR at 10 uM using poly[Glu:Tyr] (4:1) as substrate by [gamma-33P]-ATP assay relative to control
[8] = molecular target: Epidermal growth factor receptor (Homo sapiens) (UniProt P00533); assay: Inhibition of human EGFR at 10 uM using poly[Glu:Tyr] (4:1) as substrate by [gamma-33P]-ATP assay relative to control
[9] = molecular target: DNA-dependent protein kinase catalytic subunit (Homo sapiens) (UniProt P78527); assay: Inhibition of human DNAPK at 10 uM using EPPLSQEAFADLWKK as substrate by […]-ATP assay relative to control
[10] = molecular target: Mitogen-activated protein kinase 14 (Homo sapiens, UniProt Q16539); assay: Inhibition of human p38alpha using MBP as substrate by [gamma-33P]-ATP assay
Sequence of Mitogen-activated protein kinase 14 (Q16539 whole entry): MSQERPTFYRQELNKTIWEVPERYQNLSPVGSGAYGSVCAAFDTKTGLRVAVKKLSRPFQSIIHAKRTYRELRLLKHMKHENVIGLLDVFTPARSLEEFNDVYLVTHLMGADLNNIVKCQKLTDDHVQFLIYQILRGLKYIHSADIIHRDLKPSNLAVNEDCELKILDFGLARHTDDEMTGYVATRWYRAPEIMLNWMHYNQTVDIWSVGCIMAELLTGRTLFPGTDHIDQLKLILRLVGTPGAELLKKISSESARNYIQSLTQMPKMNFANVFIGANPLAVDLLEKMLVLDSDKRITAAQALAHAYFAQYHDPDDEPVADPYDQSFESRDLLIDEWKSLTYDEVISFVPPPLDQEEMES

[11] = molecular target: Tyrosine-protein kinase JAK1 (Homo sapiens) (UniProt P23458); assay: Inhibition of human JAK1 at 10 uM using poly[Glu:Tyr] (4:1) as substrate by [gamma-33P]-ATP assay relative to control
Sequence of Tyrosine-protein kinase JAK1 (Homo sapiens) (P23458 whole entry): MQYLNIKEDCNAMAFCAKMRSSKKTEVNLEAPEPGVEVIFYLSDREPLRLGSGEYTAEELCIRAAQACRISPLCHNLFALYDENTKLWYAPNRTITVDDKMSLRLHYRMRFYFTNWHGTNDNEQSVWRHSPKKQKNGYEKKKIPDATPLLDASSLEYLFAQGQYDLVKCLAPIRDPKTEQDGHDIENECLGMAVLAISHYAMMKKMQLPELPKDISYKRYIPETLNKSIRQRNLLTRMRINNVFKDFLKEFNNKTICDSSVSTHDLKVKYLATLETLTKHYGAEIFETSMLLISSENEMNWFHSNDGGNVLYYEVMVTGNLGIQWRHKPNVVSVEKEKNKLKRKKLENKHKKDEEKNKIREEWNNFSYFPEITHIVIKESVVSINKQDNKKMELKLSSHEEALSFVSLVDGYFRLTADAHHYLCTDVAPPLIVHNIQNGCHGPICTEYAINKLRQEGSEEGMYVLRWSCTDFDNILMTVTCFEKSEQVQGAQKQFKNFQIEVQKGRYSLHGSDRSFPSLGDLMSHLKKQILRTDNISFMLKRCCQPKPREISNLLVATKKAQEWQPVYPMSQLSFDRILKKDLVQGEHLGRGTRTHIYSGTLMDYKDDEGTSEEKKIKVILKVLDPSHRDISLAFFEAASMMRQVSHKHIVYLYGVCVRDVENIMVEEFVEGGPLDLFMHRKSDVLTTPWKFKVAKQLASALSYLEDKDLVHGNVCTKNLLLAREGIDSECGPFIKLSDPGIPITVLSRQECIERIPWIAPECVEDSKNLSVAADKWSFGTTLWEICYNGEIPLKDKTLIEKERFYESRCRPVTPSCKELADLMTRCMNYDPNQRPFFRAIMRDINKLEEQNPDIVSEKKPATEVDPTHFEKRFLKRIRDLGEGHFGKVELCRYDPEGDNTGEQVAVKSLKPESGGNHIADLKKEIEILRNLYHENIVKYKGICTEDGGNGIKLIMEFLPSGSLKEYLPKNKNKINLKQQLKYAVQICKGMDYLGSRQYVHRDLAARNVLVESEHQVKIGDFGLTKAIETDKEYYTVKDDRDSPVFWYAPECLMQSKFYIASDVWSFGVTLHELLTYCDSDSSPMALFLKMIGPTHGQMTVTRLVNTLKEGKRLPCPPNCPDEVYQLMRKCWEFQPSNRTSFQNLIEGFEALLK

[12] = Half life in Sprague-Dawley rat at 10 mg/kg, po measured for each 30 mins by LC-MS/MS analysis; type: ADME, organism-based; conditions: in vivo
[13] = test system: Mitogen-activated protein kinase 14 (Homo sapiens), Q16539 [T106M]; assay: Inhibition of human p38alpha T106M mutant at 10 uM using MBP as substrate by [gamma-33P]-ATP assay relative to control
Sequence of Mitogen-activated protein kinase 14 (Homo sapiens), Q16539 [T106M] (Q16539 whole entry T106M): as the sequence (Q16539 whole entry) above, with T106M counted along it

[14] = molecular target: Serine/threonine-protein kinase B-raf (Homo sapiens) (UniProt P15056); assay: Inhibition of human BRAF at 10 uM using MEK1 (K97R) as substrate by [gamma-33P]-ATP assay relative to control
Sequence of Serine/threonine-protein kinase B-raf (Homo sapiens) (P15056 whole entry): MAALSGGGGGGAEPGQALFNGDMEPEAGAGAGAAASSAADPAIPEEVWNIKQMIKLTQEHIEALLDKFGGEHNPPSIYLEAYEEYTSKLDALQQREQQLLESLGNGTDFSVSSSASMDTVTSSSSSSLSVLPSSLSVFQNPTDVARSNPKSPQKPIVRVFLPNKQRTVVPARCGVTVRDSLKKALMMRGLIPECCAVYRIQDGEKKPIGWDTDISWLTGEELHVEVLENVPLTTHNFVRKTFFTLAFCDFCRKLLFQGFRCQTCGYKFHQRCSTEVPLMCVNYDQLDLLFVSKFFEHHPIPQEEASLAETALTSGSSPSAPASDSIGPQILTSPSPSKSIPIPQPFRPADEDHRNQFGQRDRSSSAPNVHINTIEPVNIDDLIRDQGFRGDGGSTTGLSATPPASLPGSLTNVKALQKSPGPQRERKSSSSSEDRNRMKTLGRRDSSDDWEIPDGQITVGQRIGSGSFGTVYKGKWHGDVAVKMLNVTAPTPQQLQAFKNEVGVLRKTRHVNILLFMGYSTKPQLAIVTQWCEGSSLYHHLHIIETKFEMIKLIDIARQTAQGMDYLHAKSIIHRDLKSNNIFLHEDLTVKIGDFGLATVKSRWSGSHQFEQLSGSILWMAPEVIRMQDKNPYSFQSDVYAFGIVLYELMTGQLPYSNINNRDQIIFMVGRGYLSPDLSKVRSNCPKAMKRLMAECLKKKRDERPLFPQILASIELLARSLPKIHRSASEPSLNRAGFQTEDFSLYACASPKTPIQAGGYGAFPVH

[15] = molecular target: Glycogen synthase kinase-3 beta (Homo sapiens) (UniProt P49841); assay: Inhibition of human GSK3B at 10 uM using YRRAAVPPSPSLSRHSSPHQ(pS)EDEEE as substrate by [gamma-33P]-ATP assay relative to control
[16] = AUClast in Sprague-Dawley rat at 10 mg/kg, iv measured for each 30 mins by LC-MS/MS analysis; type: ADME, organism-based; set-up: dose 10 mg/kg, route intravenous, time 0 - last; conditions: in vivo
[17] = Tmax in Sprague-Dawley rat at 10 mg/kg, po measured for each 30 mins by LC-MS/MS analysis; type: ADME, organism-based; conditions: in vivo
[18] = molecular target: Receptor tyrosine-protein kinase erbB-4 (Homo sapiens) (UniProt Q15303); assay: Inhibition of human ERBB4 at 10 uM using poly[Glu:Tyr] (4:1) as substrate by [gamma-33P]-ATP assay relative to control
[19] = molecular target: Macrophage colony-stimulating factor 1 receptor (Homo sapiens) (UniProt P07333); assay: Inhibition of human FMS at 10 uM using poly[Glu:Tyr] (4:1) as substrate by [gamma-33P]-ATP assay relative to control
Sequence of Macrophage colony-stimulating factor 1 receptor (Homo sapiens) (P07333 whole entry): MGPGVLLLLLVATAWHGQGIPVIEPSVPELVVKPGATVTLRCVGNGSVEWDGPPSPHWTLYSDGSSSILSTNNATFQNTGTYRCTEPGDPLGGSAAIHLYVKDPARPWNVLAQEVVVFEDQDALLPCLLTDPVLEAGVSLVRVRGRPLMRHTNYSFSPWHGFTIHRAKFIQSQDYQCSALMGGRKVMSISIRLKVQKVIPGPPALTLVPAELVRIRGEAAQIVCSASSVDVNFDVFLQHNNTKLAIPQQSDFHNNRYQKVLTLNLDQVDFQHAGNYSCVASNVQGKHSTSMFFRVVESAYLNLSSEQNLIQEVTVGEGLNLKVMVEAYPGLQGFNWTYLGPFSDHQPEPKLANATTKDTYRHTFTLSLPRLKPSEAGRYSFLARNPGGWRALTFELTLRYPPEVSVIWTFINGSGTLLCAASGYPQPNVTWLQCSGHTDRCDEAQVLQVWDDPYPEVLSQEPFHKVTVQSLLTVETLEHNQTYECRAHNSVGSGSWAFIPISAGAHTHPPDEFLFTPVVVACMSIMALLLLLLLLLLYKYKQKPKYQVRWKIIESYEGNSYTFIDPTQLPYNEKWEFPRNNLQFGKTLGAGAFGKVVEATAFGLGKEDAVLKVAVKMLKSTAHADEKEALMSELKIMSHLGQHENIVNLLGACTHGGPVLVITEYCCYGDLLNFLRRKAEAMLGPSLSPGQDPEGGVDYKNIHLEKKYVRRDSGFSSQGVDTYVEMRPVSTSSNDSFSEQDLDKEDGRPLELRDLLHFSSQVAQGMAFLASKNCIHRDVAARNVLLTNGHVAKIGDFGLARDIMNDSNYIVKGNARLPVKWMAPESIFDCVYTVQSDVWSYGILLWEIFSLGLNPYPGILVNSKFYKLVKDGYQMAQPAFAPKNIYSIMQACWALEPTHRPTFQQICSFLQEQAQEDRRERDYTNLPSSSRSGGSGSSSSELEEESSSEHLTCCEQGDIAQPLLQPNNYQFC

[20] = molecular target: Tyrosine-protein kinase BTK (Homo sapiens) (UniProt Q06187); assay: Inhibition of human BTK at 10 uM using KVEKIGEGTYGVVYK as substrate by [gamma-33P]-ATP assay relative to control
Sequence of Tyrosine-protein kinase BTK (Homo sapiens) (Q06187 whole entry): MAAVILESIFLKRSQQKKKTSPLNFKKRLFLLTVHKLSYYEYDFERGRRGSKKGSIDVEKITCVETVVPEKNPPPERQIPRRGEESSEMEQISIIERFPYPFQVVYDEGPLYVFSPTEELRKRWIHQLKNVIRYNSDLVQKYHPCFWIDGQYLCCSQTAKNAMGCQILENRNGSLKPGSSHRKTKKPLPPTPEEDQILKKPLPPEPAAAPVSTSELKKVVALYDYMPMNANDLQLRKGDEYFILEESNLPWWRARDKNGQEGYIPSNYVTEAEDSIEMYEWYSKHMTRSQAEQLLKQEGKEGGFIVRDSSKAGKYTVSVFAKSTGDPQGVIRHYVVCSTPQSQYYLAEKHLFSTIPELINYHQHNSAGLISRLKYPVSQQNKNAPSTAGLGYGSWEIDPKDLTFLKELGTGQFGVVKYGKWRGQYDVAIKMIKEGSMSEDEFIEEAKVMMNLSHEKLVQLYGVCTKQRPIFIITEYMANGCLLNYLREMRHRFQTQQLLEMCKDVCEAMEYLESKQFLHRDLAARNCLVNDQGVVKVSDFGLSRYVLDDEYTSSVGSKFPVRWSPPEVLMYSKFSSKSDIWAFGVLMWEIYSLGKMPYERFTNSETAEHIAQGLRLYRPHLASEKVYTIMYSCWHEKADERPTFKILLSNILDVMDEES

[21] = molecular target: RAF proto-oncogene serine/threonine-protein kinase (Homo sapiens, UniProt P04049); assay: Inhibition of human RAF1 at 10 uM using MEK1 (K97R) as substrate by [gamma-33P]-ATP assay relative to control
Sequence of RAF proto-oncogene serine/threonine-protein kinase (P04049 whole entry): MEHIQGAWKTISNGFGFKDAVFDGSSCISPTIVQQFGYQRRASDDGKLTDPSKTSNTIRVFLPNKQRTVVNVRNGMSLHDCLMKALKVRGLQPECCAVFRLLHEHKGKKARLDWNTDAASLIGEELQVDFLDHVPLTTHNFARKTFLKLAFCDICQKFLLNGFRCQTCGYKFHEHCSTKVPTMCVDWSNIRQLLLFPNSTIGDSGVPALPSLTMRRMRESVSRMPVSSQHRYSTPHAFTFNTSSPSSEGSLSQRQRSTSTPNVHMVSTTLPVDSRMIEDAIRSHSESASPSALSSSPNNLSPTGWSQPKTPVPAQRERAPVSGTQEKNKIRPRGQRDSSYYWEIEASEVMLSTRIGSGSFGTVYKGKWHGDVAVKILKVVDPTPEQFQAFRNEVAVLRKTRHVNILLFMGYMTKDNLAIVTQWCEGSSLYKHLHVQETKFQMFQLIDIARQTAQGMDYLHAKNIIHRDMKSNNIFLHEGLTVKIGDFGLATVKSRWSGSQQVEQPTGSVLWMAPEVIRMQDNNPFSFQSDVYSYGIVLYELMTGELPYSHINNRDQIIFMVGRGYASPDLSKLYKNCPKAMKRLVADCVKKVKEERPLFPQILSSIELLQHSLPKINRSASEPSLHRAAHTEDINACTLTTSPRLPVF

[22] = AUClast in Sprague-Dawley rat at 10 mg/kg, po measured for each 30 mins by LC-MS/MS analysis; type: ADME, organism-based; set-up: dose 10 mg/kg, route oral, time 0 - last; conditions: in vivo
[23] = molecular target: Mitogen-activated protein kinase 1 (Homo sapiens) (UniProt P28482); assay: Inhibition of human ERK2 at 10 uM using MBP as substrate by [gamma-33P]-ATP assay relative to control
Homo sapiens [24] = organism: Homo sapiens; assay: Selectivity index, ratio of IC50 for human ERG to IC50 for human p38alpha
[25] = molecular target: Aurora kinase A (Homo sapiens) (UniProt O14965); assay: Inhibition of human Aurora A at 10 uM using [H-LRRASLG] as substrate by [gamma-33P]-ATP assay relative to control
[26] = molecular target: Serine/threonine-protein kinase mTOR (Homo sapiens) (UniProt P42345); assay: Inhibition of human mTOR at 10 uM using 4EBP1 as substrate by [gamma-33P]-ATP assay relative to control
[27] = Stability in rat plasma assessed as remaining compound at 10 uM incubated for 120 mins by LC-MS analysis; type: ADME, cell-free; conditions: read-out: Stability
[28] = molecular target: Tyrosine-protein kinase Tec (Homo sapiens) (UniProt P42680); assay: Inhibition of human TEC at 10 uM using poly[Glu:Tyr] (4:1) as substrate by [gamma-33P]-ATP assay relative to control
[29] = molecular target: Receptor-type tyrosine-protein kinase FLT3 (Homo sapiens) (UniProt P36888); assay: Inhibition of human FLT3 at 10 uM using EAIYAAPFAKKK as substrate by [gamma-33P]-ATP assay relative to control
[30] = molecular target: Serine/threonine-protein kinase B-raf (Homo sapiens, UniProt P15056, V600E); assay: Inhibition of human BRAF V600E mutant using MEK1 as substrate by […]-ATP assay
[31] = molecular target: Cyclin-dependent kinase 2/cyclin E1 (Homo sapiens) (UniProt P24864+P24941); assay: Inhibition of human CDK2/cyclin-E at 10 uM using histone H1 as substrate by [gamma-33P]-ATP assay relative to control; type: protein-complex assay
[32] = Oral bioavailability in Sprague-Dawley rat at 10 mg/kg measured for each 30 mins by LC-MS/MS analysis; type: ADME, organism-based; conditions: in vivo
Homo sapiens [33] = organism: Homo sapiens; assay: Selectivity index, ratio of IC50 for human c-MET to IC50 for human p38alpha

COc1ccc(-c2nn(-c3cccc(NC(=O)c4cccc(C(F)(F)F)c4)c3)cc2-c2ccncc2)cc1Cl
inhibition [1]: 7.06%
inhibition [2]: 3.5%
IC50 [3]: 13100 nM
remaining at 0.5 h, 10 µM [4]: 100%
inhibition [5]: 5.66%
inhibition [6]: 28.2%
inhibition [7]: -0.36%
inhibition [8]: 24.5%
inhibition [9]: -1.83%
IC50 [10]: 22 nM
inhibition [11]: -7.68%
half-life [12]: 7.3 h
inhibition [13]: -4.1%
inhibition [14]: 54.4%
inhibition [15]: -6.34%
AUC(0-t) at 0.5 h [16]: 1450 ng·h/mL
Tmax [17]: 1.2 h
inhibition [18]: 26.9%
inhibition [19]: 19%
inhibition [20]: 5.62%
inhibition [21]: 90.5%
AUC(0-t) at 0.5 h [22]: 164 ng·h/mL
inhibition [23]: 1.72%
Ratio IC50 (Homo sapiens [24]): 23.8
inhibition [25]: 3.1%
inhibition [26]: 6.75%
remaining at 2 h, 10 µM [27]: 100%
inhibition [28]: -3.79%
inhibition [29]: -5.65%
IC50 [30]: 158 nM
inhibition [31]: 2.43%
bioavailability [32]: 11.3%
Ratio IC50 (Homo sapiens [33]): 455
